Key:
morningglory = assay: Test B pre/postemergence morningglory; format: in vivo, Ipomoea hederacea
Method in brief: (§1)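 Test chemicals in a non-phytotoxic solvent mixture with surfactant were sprayed preemergence onto planted seeds and postemergence onto plants 2 to 18 cm tall (1- to 4-leaf stage). After twelve to sixteen days in a greenhouse, injury was visually rated against untreated controls from 0 (no effect) to 10 (complete control).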

bamyardgrass = assay: Test B flood test barnyardgrass; format: in vivo, Echinochloa crus-galli
Method in brief: (§2)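 Each value is a visual injury score relative to controls, with 10 meaning complete control and 0 no effect. Evaluation took place twelve to sixteen days after the 2-leaf-stage plants were treated and kept in the greenhouse.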

sugar beet = assay: Test B pre/postemergence sugar beet; format: in vivo, Beta vulgaris
Method in brief: as §1

rape = assay: Test B pre/postemergence rape; format: in vivo, Brassica napus
Method in brief: as §1

smallflower flatsedge = assay: Test B flood test smallflower flatsedge; format: in vivo, Cyperus difformis
Method in brief: as §2

rice = assay: Test B flood test rice; format: in vivo, Oryza sativa
Method in brief: as §2

duck salad = assay: Test B flood test duck salad; format: in vivo, Heteranthera limosa
Method in brief: as §2

bedstraw = assay: Test B pre/postemergence bedstraw; format: in vivo, Galium aparine
Method in brief: as §1

crabgrass = assay: Test B pre/postemergence crabgrass; format: in vivo, Digitaria sanguinalis
Method in brief: as §1

wild oat = assay: Test B pre/postemergence wild oat; format: in vivo, Avena fatua
Method in brief: as §1

corn = assay: Test B pre/postemergence corn; format: in vivo, Zea mays
Method in brief: as §1

cocklebur = assay: Test B pre/postemergence cocklebur; format: in vivo, Xanthium strumarium
Method in brief: as §1

soybean = assay: Test B pre/postemergence soybean; format: in vivo, Glycine max
Method in brief: as §1

surinam grass = assay: Test B pre/postemergence surinam grass; format: in vivo, Brachiaria decumbens
Method in brief: as §1

velvetleaf = assay: Test B pre/postemergence velvetleaf; format: in vivo, Abutilon theophrasti
Method in brief: as §1

pigweed = assay: Test B pre/postemergence pigweed; format: in vivo, Amaranthus retroflexus
Method in brief: as §1

[1] = Postemergence, Rate 31 g/ha, visual rating, scale 0 to 10 (0 no effect, 10 complete control)
[2] = Preemergence, Rate 31 g/ha, visual rating, scale 0 to 10 (0 no effect, 10 complete control)
[3] = Preemergence, Rate 62 g/ha, scale of 0 to 10 where 0 is no effect and 10 is complete control
[4] = Preemergence, Rate 250 g/ha, scale of 0 to 10 where 0 is no effect and 10 is complete control
[5] = Rate 62 g/ha, Postemergence, scale 0 to 10 (0 no effect, 10 complete control)
[6] = Rate 125 g/ha, Postemergence, scale of 0 to 10 where 0 is no effect and 10 is complete control
[7] = Rate 125 g/ha, Preemergence, scale of 0 to 10 where 0 is no effect and 10 is complete control
[8] = Rate 250 g/ha, Postemergence, scale of 0 to 10 where 0 is no effect and 10 is complete control
[9] = Rate 31 g/ha, Pre-emergence section (flood test species), scale 0 to 10
[10] = Rate 62 g/ha, headed Pre-emergence (flood test species), scale 0 to 10 (0 no effect, 10 complete control)
[11] = Rate 125 g/ha, Pre-emergence, flood test species, scale 0 to 10 where 0 is no effect and 10 is complete control
[12] = Rate 250 g/ha, Pre-emergence, flood-test species, scale 0 to 10, 0 is no effect, 10 is complete control

CCOCn1c(=O)on(C(=O)N(c2ccc(F)cc2)C(C)C)c1=O [Compound 295]
8: Plant response rating, Crabgrass (crabgrass; [8]) | B. signalgrass plant response rating (surinam grass; [4])
7: Plant response rating, Morningglory (morningglory; [8]) | Crabgrass plant response rating (crabgrass; [4]) | Crabgrass plant response rating (crabgrass; [7]) | Plant response rating, Redroot pigweed (pigweed; [8])
6: B. signalgrass plant response rating (surinam grass; [3]) | B. signalgrass plant response rating (surinam grass; [7]) | Redroot pigweed plant response rating (pigweed; [4]) | Redroot pigweed plant response rating (pigweed; [7])
9: Wild oats plant response rating (wild oat; [4])
1: Morningglory plant response rating (morningglory; [1]) | Morningglory plant response rating (morningglory; [5]) | Soybean plant response rating (soybean; [1])
4: Bedstraw plant response rating (bedstraw; [6]) | Plant response rating, Bedstraw (bedstraw; [8]) | Plant response rating, Soybean (soybean; [8])
0: Morningglory plant response rating (morningglory; [2]) | Morningglory plant response rating (morningglory; [3]) | Morningglory plant response rating (morningglory; [4]) | Morningglory plant response rating (morningglory; [7]) | Barnyardgrass plant response rating (bamyardgrass; [9]) | Barnyardgrass plant response rating (bamyardgrass; [10]) | Barnyardgrass plant response rating (bamyardgrass; [11]) | Barnyardgrass plant response rating (bamyardgrass; [12]) | Sugarbeets plant response rating (sugar beet; [1]) | Sugarbeets plant response rating (sugar beet; [2]) | Sugarbeets plant response rating (sugar beet; [3]) | Sugarbeets plant response rating (sugar beet; [5]) | Sugarbeets plant response rating (sugar beet; [6]) | Sugarbeets plant response rating (sugar beet; [7]) | Plant response rating, Sugarbeets (sugar beet; [8]) | Rape plant response rating (rape; [1]) | Rape plant response rating (rape; [2]) | Rape plant response rating (rape; [3]) | Rape plant response rating (rape; [5]) | Rape plant response rating (rape; [6]) | S. Flatsedge plant response rating (smallflower flatsedge; [9]) | S. Flatsedge plant response rating (smallflower flatsedge; [10]) | S. Flatsedge plant response rating (smallflower flatsedge; [11]) | S. Flatsedge plant response rating (smallflower flatsedge; [12]) | Rice plant response rating (rice; [9]) | Rice plant response rating (rice; [10]) | Rice plant response rating (rice; [11]) | Rice plant response rating (rice; [12]) | Ducksalad plant response rating (duck salad; [9]) | Ducksalad plant response rating (duck salad; [10]) | Ducksalad plant response rating (duck salad; [11]) | Ducksalad plant response rating (duck salad; [12]) | Bedstraw plant response rating (bedstraw; [1]) | Bedstraw plant response rating (bedstraw; [2]) | Bedstraw plant response rating (bedstraw; [3]) | Bedstraw plant response rating (bedstraw; [4]) | Bedstraw plant response rating (bedstraw; [5]) | Bedstraw plant response rating (bedstraw; [7]) | Crabgrass plant response rating (crabgrass; [1]) | Crabgrass plant response rating (crabgrass; [5]) | Wild oats plant response rating (wild oat; [1]) | Wild oats plant response rating (wild oat; [2]) | Wild oats plant response rating (wild oat; [5]) | Wild oats plant response rating (wild oat; [6]) | Corn plant response rating (corn; [1]) | Corn plant response rating (corn; [2]) | Corn plant response rating (corn; [3]) | Corn plant response rating (corn; [4]) | Corn plant response rating (corn; [5]) | Corn plant response rating (corn; [6]) | Corn plant response rating (corn; [7]) | Plant response rating, Corn (corn; [8]) | Cocklebur plant response rating (cocklebur; [1]) | Cocklebur plant response rating (cocklebur; [2]) | Cocklebur plant response rating (cocklebur; [3]) | Cocklebur plant response rating (cocklebur; [4]) | Cocklebur plant response rating (cocklebur; [5]) | Cocklebur plant response rating (cocklebur; [6]) | Cocklebur plant response rating (cocklebur; [7]) | Plant response rating, Cocklebur (cocklebur; [8]) | Soybean plant response rating (soybean; [2]) | Soybean plant response rating (soybean; [3]) | Soybean plant response rating (soybean; [4]) | Soybean plant response rating (soybean; [7]) | B. signalgrass plant response rating (surinam grass; [1]) | B. signalgrass plant response rating (surinam grass; [5]) | B. signalgrass plant response rating (surinam grass; [6]) | Velvetleaf plant response rating (velvetleaf; [1]) | Velvetleaf plant response rating (velvetleaf; [2]) | Velvetleaf plant response rating (velvetleaf; [3]) | Velvetleaf plant response rating (velvetleaf; [5]) | Velvetleaf plant response rating (velvetleaf; [6]) | Velvetleaf plant response rating (velvetleaf; [7]) | Redroot pigweed plant response rating (pigweed; [1]) | Redroot pigweed plant response rating (pigweed; [2]) | Redroot pigweed plant response rating (pigweed; [5])
10: Rape plant response rating (rape; [4])
5: Morningglory plant response rating (morningglory; [6]) | Plant response rating, B. signalgrass (surinam grass; [8]) | Plant response rating, Velvetleaf (velvetleaf; [8]) | Redroot pigweed plant response rating (pigweed; [6])
3: Sugarbeets plant response rating (sugar beet; [4]) | Plant response rating, Rape (rape; [8]) | Crabgrass plant response rating (crabgrass; [6]) | B. signalgrass plant response rating (surinam grass; [2]) | Velvetleaf plant response rating (velvetleaf; [4]) | Redroot pigweed plant response rating (pigweed; [3])
2: Rape plant response rating (rape; [7]) | Crabgrass plant response rating (crabgrass; [2]) | Crabgrass plant response rating (crabgrass; [3]) | Wild oats plant response rating (wild oat; [3]) | Plant response rating, Wild oats (wild oat; [8]) | Soybean plant response rating (soybean; [5]) | Soybean plant response rating (soybean; [6])

— patent US6737383B1, “Herbicidal oxadiazolidines” (priority 1999, dated 2004)
